Where “and” joins values, the source holds several entries; their conditions need not be identical. Equal values may be shown once. Inconclusive results and toxic doses are left out.
Test system: CD2F1 mice, L1210 leukemia ip, survival T/C
Assay: NCI In Vivo Anticancer Drug Screen. Data for tumor model L1210 Leukemia (intraperitoneal) in CD2F1 (CDF1) mice
Details: endpoint: mean survival time, higher = longer survival
Procedure, shortened: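 Tumor-bearing mice (transplanted tumor) were split into treated and vehicle control groups, and the measured endpoint of each treated group was divided by that of its vehicle controls.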

[1] = dose: 100.0 mg/kg/injection, schedule: Q01DX009 (ip), vehicle: saline
[2] = dose: 100.0 mg/kg/injection, schedule: Q04DX003 (ip), vehicle: saline
[3] = dose: 200.0 mg/kg/injection, schedule: Q01DX009 (ip), vehicle: saline
[4] = dose: 200.0 mg/kg/injection, schedule: Q04DX003 (ip), vehicle: saline
[5] = dose: 100.0 mg/kg/injection, schedule: Q01DX001 (ip), vehicle: saline with Tween-80
[6] = dose: 200.0 mg/kg/injection, schedule: Q01DX001 (ip), vehicle: saline with Tween-80
[7] = dose: 400.0 mg/kg/injection, schedule: Q01DX001 (ip), vehicle: saline with Tween-80
[8] = dose: 100.0 mg/kg/injection, schedule: Q04DX003 (ip), vehicle: saline with Tween-80
[9] = dose: 200.0 mg/kg/injection, schedule: Q04DX003 (ip), vehicle: saline with Tween-80
[10] = dose: 400.0 mg/kg/injection, schedule: Q04DX003 (ip), vehicle: saline with Tween-80
[11] = dose: 100.0 mg/kg/injection, schedule: Q01DX009 (ip), vehicle: saline with Tween-80
[12] = dose: 400.0 mg/kg/injection, schedule: Q01DX009 (ip), vehicle: saline with Tween-80

What does the source list for CS(=O)(=O)OCCCN(CCCOS(C)(=O)=O)CCCN1CCOCC1?
T/C (dose: 10.0 mg/kg/injection, schedule: Q01DX009 (ip), vehicle: saline): 197 % of control; T/C (dose: 12.0 mg/kg/injection, schedule: Q01DX001 (ip), vehicle: saline): 118 % of control; T/C (dose: 12.5 mg/kg/injection, schedule: Q04DX003 (ip), vehicle: saline): 122 % of control; T/C (dose: 20.0 mg/kg/injection, schedule: Q01DX001 (ip), vehicle: saline): 150 % of control; T/C (dose: 20.0 mg/kg/injection, schedule: Q01DX005 (ip), vehicle: saline): 152 % of control; T/C (dose: 20.0 mg/kg/injection, schedule: Q01DX009 (ip), vehicle: saline): 230 % of control; T/C (dose: 20.0 mg/kg/injection, schedule: Q02DX003 (ip), vehicle: saline): 152 % of control; T/C (dose: 20.0 mg/kg/injection, schedule: Q04DX003 (ip), vehicle: saline): 156 % of control; T/C (dose: 40.0 mg/kg/injection, schedule: Q01DX001 (ip), vehicle: saline): 200 % of control; T/C (dose: 40.0 mg/kg/injection, schedule: Q01DX005 (ip), vehicle: saline): 182 % of control; T/C (dose: 40.0 mg/kg/injection, schedule: Q01DX009 (ip), vehicle: saline): 238 % of control; T/C (dose: 40.0 mg/kg/injection, schedule: Q02DX003 (ip), vehicle: saline): 166 % of control; T/C (dose: 50.0 mg/kg/injection, schedule: Q01DX009 (ip), vehicle: saline): 180 % of control; T/C (dose: 50.0 mg/kg/injection, schedule: Q04DX003 (ip), vehicle: saline): 122 % of control; T/C (dose: 60.0 mg/kg/injection, schedule: Q01DX001 (ip), vehicle: saline): 159 % of control; T/C (dose: 60.0 mg/kg/injection, schedule: Q01DX005 (ip), vehicle: saline): 189 % of control; T/C (dose: 60.0 mg/kg/injection, schedule: Q01DX009 (ip), vehicle: saline): 230 % of control; T/C (dose: 60.0 mg/kg/injection, schedule: Q02DX003 (ip), vehicle: saline): 191 % of control; T/C (dose: 60.0 mg/kg/injection, schedule: Q04DX003 (ip), vehicle: saline): 190 % of control; T/C (dose: 75.0 mg/kg/injection, schedule: Q04DX003 (ip), vehicle: saline): 162 % of control; T/C (dose: 80.0 mg/kg/injection, schedule: Q01DX005 (ip), vehicle: saline): 234 % of control; T/C (dose: 80.0 mg/kg/injection, schedule: Q01DX009 (ip), vehicle: saline): 290 % of control; T/C (dose: 80.0 mg/kg/injection, schedule: Q02DX003 (ip), vehicle: saline): 189 % of control; T/C (dose: 80.0 mg/kg/injection, schedule: Q04DX003 (ip), vehicle: saline): 206 % of control; T/C (dose: 100.0 mg/kg/injection, schedule: Q01DX001 (ip), vehicle: saline): 153 % of control and 265 % of control; T/C (dose: 100.0 mg/kg/injection, schedule: Q01DX005 (ip), vehicle: saline): 281 % of control; T/C [1]: 190 % of control and 270 % of control; T/C (dose: 100.0 mg/kg/injection, schedule: Q02DX003 (ip), vehicle: saline): 215 % of control; T/C [2]: 165 % of control and 236 % of control; T/C (dose: 150.0 mg/kg/injection, schedule: Q04DX003 (ip), vehicle: saline): 197 % of control; T/C (dose: 200.0 mg/kg/injection, schedule: Q01DX001 (ip), vehicle: saline): 234 % of control; T/C [3]: 105 % of control; T/C [4]: 228 % of control and 297 % of control

How did the T/C [5] turn out when COc1ccc(/C=C2\Oc3cc(O)ccc3C2=O)cc1O was run?
The T/C was 96 % of control.

What about the T/C [6] of the same compound?
The T/C was 94 % of control.

What about the T/C [7] of the same compound?
The T/C was 91 % of control.

For CCCCNC1=CC(=O)c2ccccc2C1=O, which T/C [5] is on record?
The T/C was 103 % of control.

What about the T/C [6] of the same compound?
Its T/C is 95 % of control.

What about the T/C [7] of the same compound?
The T/C was 92 % of control.

Which results are given for N#CC1C=Cc2ccccc2N1C(=O)Oc1ccccc1 (configuration not stated)?
T/C [1]: 95 % of control; T/C [3]: 93 % of control; T/C (dose: 400.0 mg/kg/injection, schedule: Q01DX009 (ip), vehicle: saline): 89 % of control

Which T/C [5] does the source give for Cc1nc(N)[nH]c(=O)c1-n1nnc2ccccc2c1=O here?
Its T/C is 92 % of control.

What about the T/C [6] of the same compound?
The T/C was 87 % of control.

And the T/C [7]?
Its T/C is 89 % of control.

With CCOC(=O)Cn1c(=O)cc(C)c2ccccc21 as the compound, how does the T/C [8] read?
Its T/C is 100 % of control.

What about the T/C [9] of the same compound?
Its T/C is 101 % of control.

What about the T/C [10] of the same compound?
Its T/C is 101 % of control.

Which T/C (dose: 100.0 mg/kg/injection, schedule: Q04DX003 (sc), vehicle: Klucel + Tween-80) does the source give for CCOP(=S)(OCC)S/C(C(=O)NC)=C(/C)O here?
Its T/C is 96 % of control.

And the T/C (dose: 200.0 mg/kg/injection, schedule: Q04DX003 (sc), vehicle: Klucel + Tween-80)?
The T/C was 100 % of control.

What about the T/C (dose: 400.0 mg/kg/injection, schedule: Q04DX003 (sc), vehicle: Klucel + Tween-80) of the same compound?
The T/C was 115 % of control.

What about the T/C (dose: 600.0 mg/kg/injection, schedule: Q04DX003 (sc), vehicle: Klucel + Tween-80) of the same compound?
The T/C was 96 % of control.

O=C(NC(=O)c1ccccc1)Nc1ccccc1 was tested. Which T/C [11] did it give?
The T/C was 96 % of control.

And the T/C [8]?
Its T/C is 92 % of control.

What about the T/C [9] of the same compound?
Its T/C is 90 % of control.

And the T/C [12]?
Its T/C is 94 % of control.

What about the T/C [10] of the same compound?
Its T/C is 90 % of control.

CC(=O)OCc1c(Cl)ccc(Cl)c1Cl was tested. Which T/C [11] did it give?
Its T/C is 98 % of control.

What about the T/C (dose: 100.0 mg/kg/injection, schedule: Q04DX003 (ip), vehicle: saline sonified) of the same compound?
The T/C was 107 % of control.

And the T/C (dose: 200.0 mg/kg/injection, schedule: Q01DX009 (ip), vehicle: saline with Tween-80)?
The T/C was 100 % of control.

What about the T/C (dose: 200.0 mg/kg/injection, schedule: Q04DX003 (ip), vehicle: saline sonified) of the same compound?
Its T/C is 96 % of control.

And the T/C [12]?
The T/C was 100 % of control.

What about the T/C (dose: 400.0 mg/kg/injection, schedule: Q04DX003 (ip), vehicle: saline sonified) of the same compound?
The T/C was 96 % of control.

What does the source list for OC(C=C(C(F)(F)F)C(F)(F)F)c1ccccc1Cl (configuration not stated)?
T/C (dose: 50.0 mg/kg/injection, schedule: Q04DX003 (ip), vehicle: saline with Tween-80): 102 % of control; T/C [8]: 107 % of control; T/C [9]: 111 % of control

How did the T/C [2] turn out when CN(C)Cc1cc(CN(C)C)c(O)c(CN(C)C)c1 was run?
The T/C was 107 % of control.

And the T/C [4]?
Its T/C is 100 % of control.

Which results are given for CNC(=O)/C(=C(\[O-])NC)[S+](C)(C)=O?
T/C [8]: 101 % of control; T/C [9]: 100 % of control; T/C [10]: 100 % of control

Which T/C (dose: 100.0 mg/kg/injection, schedule: Q01DX001 (ip), vehicle: saline sonified) does the source give for Cc1ccccc1/C1=C/CCCCCC1 here?
Its T/C is 107 % of control.

What about the T/C [8] of the same compound?
The T/C was 102 % of control.

And the T/C (dose: 200.0 mg/kg/injection, schedule: Q01DX001 (ip), vehicle: saline sonified)?
The T/C was 94 % of control.

What about the T/C [9] of the same compound?
Its T/C is 104 % of control.

What about the T/C (dose: 400.0 mg/kg/injection, schedule: Q01DX001 (ip), vehicle: saline sonified) of the same compound?
Its T/C is 89 % of control.

And the T/C [10]?
Its T/C is 93 % of control.

Which T/C (dose: 12.5 mg/kg/injection, schedule: Q04DX002 (ip), vehicle: Klucel (hydroxypropylcellulose) (HPC)) does the source give for CC(=O)C(=O)Sc1ccccc1 here?
The T/C was 94 % of control.

And the T/C (dose: 25.0 mg/kg/injection, schedule: Q04DX002 (ip), vehicle: Klucel (hydroxypropylcellulose) (HPC))?
The T/C was 105 % of control.

And the T/C (dose: 50.0 mg/kg/injection, schedule: Q04DX002 (ip), vehicle: Klucel (hydroxypropylcellulose) (HPC))?
Its T/C is 90 % of control.

Which results are given for Cc1[nH]c2cc(Cl)ccc2c1CC(=O)O?
T/C (dose: 100.0 mg/kg/injection, schedule: Q01DX001 (ip), vehicle: other): 101 % of control; T/C (dose: 200.0 mg/kg/injection, schedule: Q01DX001 (ip), vehicle: other): 98 % of control; T/C (dose: 400.0 mg/kg/injection, schedule: Q01DX001 (ip), vehicle: other): 98 % of control

How did the T/C (dose: 50.0 mg/kg/injection, schedule: Q01DX001 (ip), vehicle: Klucel (hydroxypropylcellulose) (HPC)) turn out when Nc1ccc2nsnc2c1 was run?
Its T/C is 105 % of control.

And the T/C (dose: 100.0 mg/kg/injection, schedule: Q01DX001 (ip), vehicle: Klucel (hydroxypropylcellulose) (HPC))?
Its T/C is 90 % of control.

What about the T/C (dose: 200.0 mg/kg/injection, schedule: Q01DX001 (ip), vehicle: Klucel (hydroxypropylcellulose) (HPC)) of the same compound?
The T/C was 103 % of control.

COC1C(O)CC(OC2CC(Oc3cc4cc5c(c(O)c4c(O)c3C)C(=O)[C@@H](OC3CC(OC4CC(OC6CC(C)(O)C(OC(C)=O)C(C)O6)C(O)C(C)O4)C(O)C(C)O3)[C@H]([C@H](OC)C(=O)[C@@H](O)[C@@H](C)O)C5)OC(C)C2OC(C)=O)OC1C (some centres not stated) was tested. Which T/C (dose: 62.5 micrograms/kg/injection, schedule: Q01DX009 (ip), vehicle: saline) did it give?
The T/C was 120 % of control.

What about the T/C (dose: 250.0 micrograms/kg/injection, schedule: Q01DX009 (ip), vehicle: saline) of the same compound?
The T/C was 92 % of control.

For COC(=O)C[As+](c1ccccc1)(c1ccccc1)c1ccccc1, which T/C (dose: 75.0 mg/kg/injection, schedule: Q01DX001 (ip), vehicle: other) is on record?
The T/C was 97 % of control.

And the T/C (dose: 75.0 mg/kg/injection, schedule: Q01DX001 (ip), vehicle: saline)?
The T/C was 103 % of control.

And the T/C (dose: 150.0 mg/kg/injection, schedule: Q01DX001 (ip), vehicle: other)?
The T/C was 91 % of control.

And the T/C (dose: 150.0 mg/kg/injection, schedule: Q01DX001 (ip), vehicle: saline)?
The T/C was 94 % of control.
